Assay results published in patent EP4592286A1, “MACROCYCLIC NITROGEN-CONTAINING CROWN ETHER COMPOUND AND USE THEREOF AS PROTEIN KINASE INHIBITOR” (Artivila Biopharma, priority 2022, dated 2024).

Legend:
Format in all cases: biochemical
JAK2 = JAK2 (Homo sapiens, UniProt O60674); experiment: experiment of inhibiting kinase activity (Caliper mobility shift assay), JAK2; settings: for inhibition at 0.01 µM: at 10 nM; for inhibition at 0.01 µM / inhibition at 0.1 µM: read-out: inhibition rate JAK2; for inhibition at 0.1 µM: at 100 nM; for IC50: kinase activity assay, Table 3
Procedure: (§1) The inhibition rates of tested compounds on JAK1, JAK2, JAK3, TYK2, CDK7, CDK9, EGFR (T790M) and LRRK2 kinases were measured. The test concentrations of the compounds were 10 nM and 100 nM, and the detection was performed by replicate wells. Alternatively, compounds were 3-fold serial diluted from 10 µM for 10 concentrations in replicate wells.
(§2) The inhibitory effects of the compounds on JAK1, JAK2, JAK3, CDK7 and CDK9 kinases were detected by the method of Caliper mobility shift assay. 250 nL of the compound at 100-fold final concentration was transferred to a destination plate 384-well-plate by using a liquid handler Echo 550. A kinase solution at 2.5-fold final concentration was prepared with 1×kinase buffer. 10 µL of the kinase solution with 2.5-fold final concentration was added to compound wells and positive control wells; and 10 µL of 1×kinase buffer was added to negative control wells. The mixture was centrifuged at 1000 rpm for 30 seconds and then incubated at room temperature for 10 minutes. A mixed solution of ATP and kinase substrate at 5/3-fold final concentration was prepared with 1×kinase buffer, and 15 µL of the mixed solution of ATP and substrate at 5/3-fold final concentration was added to start the reaction. The 384-well plate was centrifuged at 1000 rpm for 30 seconds, shaked and mixed evenly, then incubated at room temperature for a corresponding time. 30 µL of stop solution was added to stop the kinase reaction, the mixture was centrifuged at 1000 rpm for 30 seconds, and shaked and mixed evenly. The conversion rate was read by Caliper EZ Reader. The conversion inhibition rate%=(average positive control conversion rate%-sample conversion rate%)/(average positive control conversion rate%-average negative control conversion rate%). Where negative control wells represent the conversion readings of the background well of kinase buffer; and positive control wells represent the conversion readings of wells without compound inhibition. With the log value of concentration as the x axis and the percentage inhibition rate as the y axis, the dose-response curve was fitted by the log (inhibitor) vs. response-variable slope of the analyzing softwar GraphPad Prism 5, and the IC50 values of each compound on enzyme activity were obtained. Calculation formula is as follows: y=Bottom+(Top-Bottom)/(1+10^((LogIC50-x)×hillslope)), where x is logarithm of inhibitor concentration; and Y is % inhibition rate.

JAK3 = target: T1, JAK3 (Homo sapiens, UniProt P52333); experiment: experiment of inhibiting kinase activity (Caliper mobility shift assay), JAK3; settings: for inhibition at 0.1 µM: at 100 nM; for inhibition at 0.1 µM / inhibition at 0.01 µM: read-out: inhibition rate JAK3; for inhibition at 0.01 µM: at 10 nM
T1 sequence (P52333 1-1124): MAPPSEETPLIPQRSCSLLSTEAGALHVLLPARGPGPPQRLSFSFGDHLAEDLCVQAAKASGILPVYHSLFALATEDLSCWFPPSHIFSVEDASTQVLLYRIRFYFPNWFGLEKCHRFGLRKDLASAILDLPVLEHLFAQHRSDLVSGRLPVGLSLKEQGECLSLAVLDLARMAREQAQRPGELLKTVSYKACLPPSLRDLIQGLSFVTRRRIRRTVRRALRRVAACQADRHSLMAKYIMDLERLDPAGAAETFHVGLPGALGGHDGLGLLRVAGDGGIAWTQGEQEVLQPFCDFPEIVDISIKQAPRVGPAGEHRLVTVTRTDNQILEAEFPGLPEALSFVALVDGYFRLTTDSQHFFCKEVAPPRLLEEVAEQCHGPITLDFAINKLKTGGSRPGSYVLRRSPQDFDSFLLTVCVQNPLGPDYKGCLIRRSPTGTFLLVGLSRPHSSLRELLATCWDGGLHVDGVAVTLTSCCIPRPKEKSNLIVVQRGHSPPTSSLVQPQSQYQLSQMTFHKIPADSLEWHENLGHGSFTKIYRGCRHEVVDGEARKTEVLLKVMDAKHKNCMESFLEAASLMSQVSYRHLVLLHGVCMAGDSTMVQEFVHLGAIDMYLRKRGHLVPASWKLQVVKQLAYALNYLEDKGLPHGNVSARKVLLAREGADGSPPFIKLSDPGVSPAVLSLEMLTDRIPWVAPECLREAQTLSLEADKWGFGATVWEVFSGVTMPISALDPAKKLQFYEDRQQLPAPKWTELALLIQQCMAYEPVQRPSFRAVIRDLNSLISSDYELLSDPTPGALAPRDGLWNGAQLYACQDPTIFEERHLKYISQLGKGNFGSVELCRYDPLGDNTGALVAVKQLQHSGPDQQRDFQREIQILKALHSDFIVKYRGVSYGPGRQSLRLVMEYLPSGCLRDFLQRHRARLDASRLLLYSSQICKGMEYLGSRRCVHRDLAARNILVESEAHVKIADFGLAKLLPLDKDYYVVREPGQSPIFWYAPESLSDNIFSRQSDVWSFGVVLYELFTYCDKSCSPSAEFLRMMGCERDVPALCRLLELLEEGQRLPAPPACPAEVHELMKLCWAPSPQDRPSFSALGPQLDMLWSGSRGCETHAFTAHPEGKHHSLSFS
Procedure: as §1, §2

JAK1 = JAK1 (Homo sapiens, UniProt P23458); experiment: experiment of inhibiting kinase activity (Caliper mobility shift assay), JAK1; settings: read-out: inhibition rate JAK1; for inhibition at 0.1 µM: at 100 nM; for inhibition at 0.01 µM: at 10 nM
Procedure: as §1, §2

LRRK2 = LRRK2 (Homo sapiens, UniProt Q5S007); experiment: experiment of inhibiting kinase activity, LRRK2; settings: for inhibition at 0.1 µM: at 100 nM; for inhibition at 0.1 µM / inhibition at 0.01 µM: read-out: inhibition rate LRRK2; for IC50: kinase activity assay, Table 3; for inhibition at 0.01 µM: at 10 nM
Procedure: as §1

TYK2 = TYK2 (Homo sapiens, UniProt P29597); experiment: experiment of inhibiting kinase activity, TYK2; settings: read-out: inhibition rate TYK2; for inhibition at 0.1 µM: at 100 nM; for inhibition at 0.01 µM: at 10 nM
Procedure: as §1

Chain of JAK1 (P23458 whole entry): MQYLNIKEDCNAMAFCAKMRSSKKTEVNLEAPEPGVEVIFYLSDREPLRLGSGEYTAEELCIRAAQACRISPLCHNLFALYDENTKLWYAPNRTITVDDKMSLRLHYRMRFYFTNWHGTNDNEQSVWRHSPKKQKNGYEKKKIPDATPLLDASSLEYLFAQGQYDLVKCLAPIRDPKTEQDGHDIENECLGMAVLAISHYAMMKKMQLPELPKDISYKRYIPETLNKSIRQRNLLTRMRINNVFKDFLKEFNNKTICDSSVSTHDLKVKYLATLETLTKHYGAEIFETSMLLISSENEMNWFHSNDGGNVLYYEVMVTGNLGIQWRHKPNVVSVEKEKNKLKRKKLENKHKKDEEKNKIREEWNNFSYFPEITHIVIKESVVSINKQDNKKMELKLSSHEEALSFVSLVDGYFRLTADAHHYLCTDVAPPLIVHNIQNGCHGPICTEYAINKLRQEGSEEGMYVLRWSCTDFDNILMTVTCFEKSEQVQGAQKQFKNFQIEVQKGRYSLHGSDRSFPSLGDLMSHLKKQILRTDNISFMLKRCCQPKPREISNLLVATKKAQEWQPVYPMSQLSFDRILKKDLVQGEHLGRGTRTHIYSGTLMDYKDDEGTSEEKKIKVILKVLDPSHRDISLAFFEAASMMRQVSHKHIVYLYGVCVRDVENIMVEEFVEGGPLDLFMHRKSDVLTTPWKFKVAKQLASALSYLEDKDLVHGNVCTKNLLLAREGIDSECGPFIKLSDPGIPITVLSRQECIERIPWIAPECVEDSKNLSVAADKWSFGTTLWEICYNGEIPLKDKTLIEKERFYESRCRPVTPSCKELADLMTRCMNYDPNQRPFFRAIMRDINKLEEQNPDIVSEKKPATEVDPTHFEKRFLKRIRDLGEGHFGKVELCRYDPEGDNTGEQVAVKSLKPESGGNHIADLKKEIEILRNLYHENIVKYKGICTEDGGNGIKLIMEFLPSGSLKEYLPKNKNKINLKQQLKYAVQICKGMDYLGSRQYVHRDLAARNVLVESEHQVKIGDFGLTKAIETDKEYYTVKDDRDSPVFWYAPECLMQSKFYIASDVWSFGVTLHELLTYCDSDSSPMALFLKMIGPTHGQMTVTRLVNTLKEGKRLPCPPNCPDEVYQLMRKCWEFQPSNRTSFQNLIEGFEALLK
Chain of JAK2 (O60674 whole entry): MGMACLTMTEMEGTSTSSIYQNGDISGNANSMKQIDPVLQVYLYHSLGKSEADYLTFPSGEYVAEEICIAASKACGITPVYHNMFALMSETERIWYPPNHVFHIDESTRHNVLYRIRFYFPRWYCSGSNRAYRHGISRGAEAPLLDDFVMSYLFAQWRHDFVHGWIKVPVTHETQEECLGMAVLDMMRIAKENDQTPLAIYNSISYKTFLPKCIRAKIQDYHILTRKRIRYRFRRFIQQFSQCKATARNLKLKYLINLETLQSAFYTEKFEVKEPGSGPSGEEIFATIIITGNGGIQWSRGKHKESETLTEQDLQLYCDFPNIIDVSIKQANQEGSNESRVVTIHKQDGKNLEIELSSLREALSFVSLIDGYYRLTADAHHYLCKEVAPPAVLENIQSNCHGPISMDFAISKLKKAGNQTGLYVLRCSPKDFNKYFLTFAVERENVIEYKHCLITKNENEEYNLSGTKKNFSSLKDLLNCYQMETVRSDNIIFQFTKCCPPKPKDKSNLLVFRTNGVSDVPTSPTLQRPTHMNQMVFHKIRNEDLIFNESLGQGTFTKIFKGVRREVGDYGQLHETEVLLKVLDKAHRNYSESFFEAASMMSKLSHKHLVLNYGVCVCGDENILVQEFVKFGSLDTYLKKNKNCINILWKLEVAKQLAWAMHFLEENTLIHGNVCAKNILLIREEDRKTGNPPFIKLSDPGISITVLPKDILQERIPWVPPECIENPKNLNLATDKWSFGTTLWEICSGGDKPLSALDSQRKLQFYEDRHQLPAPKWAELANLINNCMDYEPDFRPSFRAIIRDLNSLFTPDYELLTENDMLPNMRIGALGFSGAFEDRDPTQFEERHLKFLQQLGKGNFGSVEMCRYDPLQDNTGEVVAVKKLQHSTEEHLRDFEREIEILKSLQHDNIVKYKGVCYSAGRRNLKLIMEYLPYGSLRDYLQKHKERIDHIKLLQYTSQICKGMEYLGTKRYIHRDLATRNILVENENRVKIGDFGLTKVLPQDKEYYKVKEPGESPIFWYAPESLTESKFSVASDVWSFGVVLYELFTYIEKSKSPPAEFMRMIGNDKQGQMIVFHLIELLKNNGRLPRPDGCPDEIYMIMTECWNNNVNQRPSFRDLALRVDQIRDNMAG
Chain of TYK2 (P29597 whole entry): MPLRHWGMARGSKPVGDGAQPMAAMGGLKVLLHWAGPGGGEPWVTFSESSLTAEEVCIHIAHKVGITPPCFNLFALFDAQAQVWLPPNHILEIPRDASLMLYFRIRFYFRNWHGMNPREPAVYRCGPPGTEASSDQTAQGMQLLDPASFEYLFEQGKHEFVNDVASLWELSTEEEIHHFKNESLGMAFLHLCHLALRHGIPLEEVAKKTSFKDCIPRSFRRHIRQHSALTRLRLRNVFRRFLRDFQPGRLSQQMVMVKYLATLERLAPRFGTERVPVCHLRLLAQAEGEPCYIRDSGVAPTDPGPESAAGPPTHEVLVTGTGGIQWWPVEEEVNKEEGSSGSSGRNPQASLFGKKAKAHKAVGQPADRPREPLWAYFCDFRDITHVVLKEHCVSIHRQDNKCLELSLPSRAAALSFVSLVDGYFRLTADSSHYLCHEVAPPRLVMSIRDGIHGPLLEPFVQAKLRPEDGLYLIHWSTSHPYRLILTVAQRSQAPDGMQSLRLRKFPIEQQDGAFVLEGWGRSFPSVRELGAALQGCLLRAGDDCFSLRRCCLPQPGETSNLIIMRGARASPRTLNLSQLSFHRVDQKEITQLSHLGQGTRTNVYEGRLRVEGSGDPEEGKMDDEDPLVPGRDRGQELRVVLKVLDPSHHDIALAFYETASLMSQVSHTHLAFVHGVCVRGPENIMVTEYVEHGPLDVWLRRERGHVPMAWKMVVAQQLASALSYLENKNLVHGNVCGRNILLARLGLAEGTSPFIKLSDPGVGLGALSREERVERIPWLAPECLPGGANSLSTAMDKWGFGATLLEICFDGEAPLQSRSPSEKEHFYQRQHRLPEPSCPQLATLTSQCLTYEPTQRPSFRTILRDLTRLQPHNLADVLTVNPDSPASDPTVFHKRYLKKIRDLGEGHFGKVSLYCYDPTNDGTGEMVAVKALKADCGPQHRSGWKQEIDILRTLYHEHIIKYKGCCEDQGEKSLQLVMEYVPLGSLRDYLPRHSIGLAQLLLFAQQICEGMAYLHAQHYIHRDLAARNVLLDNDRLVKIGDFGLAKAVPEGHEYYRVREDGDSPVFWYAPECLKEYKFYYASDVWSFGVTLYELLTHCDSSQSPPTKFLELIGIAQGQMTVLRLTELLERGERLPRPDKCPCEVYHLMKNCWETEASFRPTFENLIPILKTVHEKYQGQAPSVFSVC

| Structure (SMILES) | inhibition at 0.01 µM (JAK2) | inhibition at 0.1 µM (JAK2) | IC50 (JAK2) | inhibition at 0.1 µM (LRRK2) | inhibition at 0.01 µM (JAK3) | inhibition at 0.01 µM (LRRK2) | also measured |
| --- | --- | --- | --- | --- | --- | --- | --- |
| CN1CCOc2ccc(Nc3ncc(F)c(Nc4cccc(S(=O)(=O)NC(C)(C)C)c4)n3)cc2OCC1 [Example 1, N-(tert-butyl)-3-((5-fluoro-2-((4-methyl-3,4,5,6-tetrahydro-2H-benzo[b][1,4,7]dioxazolin-9-yl)amino)pyrimidin-4-yl)amino)benzsulfamide] | 40 to 79% | > 80% | < 50 nM |  |  |  | inhibition at 0.1 µM (JAK3): 25 to 39%; inhibition at 0.1 µM (JAK1): 25 to 39% |
| CN1CCOCCOc2cc(Nc3ncc(F)c(Nc4cccc(S(=O)(=O)NC(C)(C)C)c4)n3)ccc2OCC1 [Example 9, N-(tert-butyl)-3-((5-fluoro-2-((7-methyl-2,3,6,7,8,9-hexahydro-5H-benzo[b][1,4,7]trioxa[10]azacyclododecan-13-yl)amino)pyrimidin-4-yl)amino)benzenesulfonamide] | > 80% | > 80% | < 50 nM | 40 to 79% |  |  | inhibition at 0.1 µM (TYK2): 40 to 79%; inhibition at 0.1 µM (JAK3): 40 to 79%; inhibition at 0.1 µM (JAK1): 25 to 39% |
| CN1CCOc2ccc(Nc3ncc(F)c(-c4cn(C)c5ccccc45)n3)cc2OCC1 [Example 13, N-(5-fluoro-4-(1-methyl-1H-indol-3-yl)pyrimidin-2-yl)-4-methyl-3,4,5,6-tetrahydro-2H -benzo[b][1,4,7]bisoxazolin-9-amine] |  | 40 to 79% | < 50 nM | 40 to 79% |  |  | IC50 (LRRK2): 50 to 200 nM; inhibition at 0.1 µM (TYK2): 25 to 39%; IC50 (JAK3; kinase activity assay, Table 3): 50 to 200 nM |
| CN1CCOc2ccc(Nc3nc(Nc4cccc(S(=O)(=O)NC(C)(C)C)c4)c4cc[nH]c4n3)cc2OCC1 [Example 21, N-(tert-butyl)-3-((2-((4-methyl-3,4,5,6-tetrahydro-2H-benzo[b][1,4,7]dioxazolin-9-yl)amino)-7H-pyrrolo[2,3-d]pyrimidin-4-yl)amino)benzenesulfonamide] |  | 40 to 79% | < 50 nM | 40 to 79% |  |  | IC50 (LRRK2): 50 to 200 nM |
| CN1CCOCCOc2ccc(Nc3ncc(F)c(-c4cn(C)c5ccccc45)n3)cc2OCC1 [Example 41, N-(5-fluoro-4-(1-methyl-1H-indol-3-yl)pyrimidin-2-yl)-7-methyl-2,3,6,7,8,9-hexahydro-5H-benzo[b][1,4,7]trioxa[10]azacyclododecan-12-amine] | 40 to 79% |  |  |  | 25 to 39% |  |  |
| CCS(=O)(=O)N1CC(CC#N)(n2cc(-c3nc(Nc4ccc5c(c4)OCCN(C)CCOCCO5)ncc3F)cn2)C1 [Example 43, 2-(1-(ethylsulfonyl)-3-(4-(5-fluoro-2-((7-methyl-2,3,6,7,8,9-hexahydro-5H-benzo[b][1,4,7]trioxa[10]azacyclododecan-12-yl)amino)pyrimidin-4-yl)-1H-pyrazol-1-yl)azetidin-3-yl) acetonitrile] | > 80% |  |  |  | 25 to 39% | 25 to 39% | inhibition at 0.01 µM (TYK2): 40 to 79% |
| CCS(=O)(=O)N1CC(CC#N)(n2cc(-c3nc(Nc4ccc5c(c4)OCCN(C)CCOCCO5)nc4[nH]ncc34)cn2)C1 [Example 50, 2-(1-(ethylsulfonyl)-3-(4-(6-((7-methyl-2,3,6,7,8,9-hexahydro-5H-benzo[b][1,4,7]trioxa[10]azacyclododecan-12-yl)amino)-1H-pyrazolo[3,4-d]pyrimidin-4-yl)-1H-pyrazol-1-y 1)azetidin-3-yl)acetonitrile] | > 80% |  |  |  |  |  | inhibition at 0.01 µM (TYK2): 25 to 39% |
| CN1CCOCCOc2cc(Nc3nc(Nc4ccccc4NS(C)(=O)=O)c4cc[nH]c4n3)ccc2OCC1 [Example 61, N-(2-((2-((7-methyl-2,3,6,7,8,9-hexahydro-5H-benzo[b][1,4,7]trioxa[10]azacyclododecan-13-yl)amino)-7H-pyrrolo[2,3-d]pyrimidin-4-yl)amino)phenyl)methanesulfonamide] | 40 to 79% |  |  |  | 40 to 79% | > 80% | IC50 (LRRK2): < 50 nM |
| CN1CCOCCOc2cc(Nc3nc(-c4cnn(S(C)(=O)=O)c4)c4cc[nH]c4n3)ccc2OCC1 [Example 63, 7-methyl-N-(4-(1-(methylsulfonyl)-1H-pyrazol-4-yl)-7H-pyrrolo[2,3-d]pyrimidin-2-yl)-2,3,6,7,8,9-hexahydro-5H-benzo[b][1,4,7]trioxa[10]azacyclododecan-13-amine] | 40 to 79% |  |  |  |  | 40 to 79% |  |
| CNc1nc(Nc2ccc3c(c2)OCCN(C)CCO3)nc2[nH]ccc12 [Example 64, N^4-methyl-N^2-(4-methyl-3,4,5,6-tetrahydro-2H-benzo[b][1,4,7]dioxazolin-9-yl)-7H-pyrrolo[2,3-d]pyrimidin-2,4-diamine] |  | 25 to 39% |  | > 80% |  |  |  |
| CN1CCOc2ccc(Nc3nc(-c4cnn(C5CN(S(C)(=O)=O)C5)c4)c4cc[nH]c4n3)cc2OCC1 [Example 69, 4-methyl-N-(4-(1-(1-(methylsulfonyl)azetidin-3-yl)-1H-pyrazol-4-yl)-7H-pyrrolo [2,3-d]pyrimidin-2-yl)-3,4,5,6-tetrahydro-2H-benzo[b][1,4,7]dioxazolin-9-amine] | 40 to 79% |  |  |  | 25 to 39% | 25 to 39% |  |
| CN1CCOc2ccc(Nc3ncc(Cl)c(Nc4cccc(NC(=O)[C@H]5C[C@H](N)C5)c4)n3)cc2OCC1 [Example 72, (1r,3r)-3-amino-N-(3-((5-chloro-2-((4-methyl-3,4,5,6-tetrahydro-2H-benzo[b][1,4,7]dioxazolin-9-yl)amino)pyrimidin-4-yl)amino)phenyl)cyclobutan-1-carboxamide] | 40 to 79% |  |  |  |  |  | inhibition at 0.01 µM (JAK1): 25 to 39% |
| CN1CCOc2ccc(Nc3nc(N4C[C@H]5CC[C@@H](C4)N5C(=O)C4CC4)c4cc[nH]c4n3)cc2OCC1 [Example 79, cyclopropyl((1R,5S)-3-(2-((4-methyl-3,4,5,6-tetrahydro-2H-benzo[b][1,4,7]dioxazolin-9-yl)amino)-7H-pyrrolo[2,3-d]pyrimidin-4-yl)-3,8-diazabicyclo[3.2.1]octan-8-yl)methanone] | > 80% |  |  |  |  | 40 to 79% | inhibition at 0.01 µM (TYK2): > 80%; inhibition at 0.01 µM (JAK1): 40 to 79% |
